Source: patent EP4692105A1, “CYCLIC POLYPEPTIDE COMPOUND AND USE THEREOF” (Bivision Pharmaceuticals, Inc, priority 2023, dated 2024)
Ends that are not written are not given here.

How the values were obtained:
FAP protein = target: T1, FAP protein (Homo sapiens, UniProt Q12884); experiment: Biacore (SPR) test of compound affinity to FAP protein; assay type: binding; conditions: for pKD (FAP): Biacore 8K, SA chip, 15 °C, single cycle, 1:1 binding model, pKD = -LogKD
T1 construct: purchased Sinobiological
T1 sequence (Q12884 1-760): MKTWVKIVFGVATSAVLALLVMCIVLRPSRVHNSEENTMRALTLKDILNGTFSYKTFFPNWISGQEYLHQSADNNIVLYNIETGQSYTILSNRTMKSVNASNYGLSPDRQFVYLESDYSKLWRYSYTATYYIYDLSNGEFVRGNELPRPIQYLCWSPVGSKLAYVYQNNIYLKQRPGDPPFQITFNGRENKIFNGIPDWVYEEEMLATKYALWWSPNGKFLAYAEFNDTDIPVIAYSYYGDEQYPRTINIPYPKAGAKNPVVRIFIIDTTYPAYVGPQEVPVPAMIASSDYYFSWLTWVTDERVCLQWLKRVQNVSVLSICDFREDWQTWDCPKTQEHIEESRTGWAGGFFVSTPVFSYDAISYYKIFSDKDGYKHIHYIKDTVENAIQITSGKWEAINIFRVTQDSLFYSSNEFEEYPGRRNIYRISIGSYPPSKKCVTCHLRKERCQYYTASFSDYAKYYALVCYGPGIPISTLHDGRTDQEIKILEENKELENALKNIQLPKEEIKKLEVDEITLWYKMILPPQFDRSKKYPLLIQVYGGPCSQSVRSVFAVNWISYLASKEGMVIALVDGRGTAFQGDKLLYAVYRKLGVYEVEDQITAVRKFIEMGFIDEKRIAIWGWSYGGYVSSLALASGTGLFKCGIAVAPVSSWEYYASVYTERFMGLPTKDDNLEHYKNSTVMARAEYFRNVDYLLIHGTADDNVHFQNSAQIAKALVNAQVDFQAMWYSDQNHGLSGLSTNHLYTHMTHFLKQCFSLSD
Method: The Biacore 8K (Cytiva) instrument was used to detect ligand binding of the FAP protein (Sinobiological). FAP protein was captured on the SA chip. Prior to ligand immobilization (flow paths 1 and 2, flow rate of 10 µL/min), FAP protein (10 µg/mL, flow rate of 5 µL/min, injection time of 600 s) was immobilized on flow path 2 using running buffer. The sensor surface was conditioned by injecting 1M NaCl three consecutive times in 50 mM NaOH. After each ligand injection, additional cleaning was performed using isopropanol in 1M NaCl and 50 mM NaOH (flow path 1 and 2, flow rate of 10 µL/min, injection time of 60 s).
The tested compound was dissolved in 100% dimethyl sulfoxide and diluted to 10 mM, then diluted in the assay buffer (PBS, pH 7.4, 1 mM TCEP ([…]), 0.05% P20, 2% dimethyl sulfoxide) to an appropriate maximum concentration. The analyte was run under the following conditions: analysis temperature of 15 °C, analysis step = all set to LMW kinetics; cycle type = single cycle (contact time of 90 s, dissociation time of 1800 s, flow rate of 30 µL/min, flow channels 1 and 2); channel detection = 2-1. Data was evaluated using the Biacore Insight Evaluation Software, and the data were fitted to a 1:1 binding model.
The Biacore results are shown in Table 2 below: pKD = -LogKD, where KD is the binding affinity of the compound to the FAP protein as measured by Biacore.

[1] = target: T2, fibroblast activation protein (FAP) (Homo sapiens, UniProt Q12884); experiment: Protease inhibition selectivity assay (fluorogenic substrate Z-Gly-Pro-AMC), FAP; assay type: biochemical; conditions: recombinant human FAP 1.2 nM, pH 7.5
T2 sequence (Q12884 1-760): T1 sequence (Q12884 1-760)
Method: (§1) The specificity of the synthesized compounds for recombinant human dipeptidyl peptidase IV (DPPIV), fibroblast activation protein (FAP), or prolyl oligopeptidase (PREP) was expressed by their half-maximal inhibitory concentration (IC50) against the proteases. […] It was incubated at room temperature for 10 minutes, with the plate being shaken for the first two minutes. • 6) 10 µL of the 20x substrate prepared in step 3 was added to each well and incubated at room temperature for 15 minutes, with the plate being shaken for the first two minutes. • 7) Fluorescence was read at λex:380 and λem:460.

[2] = target: T3, prolyl oligopeptidase (PREP) (Homo sapiens, UniProt P48147); experiment: Protease inhibition selectivity assay (fluorogenic substrate Z-Gly-Pro-AMC), PREP; assay type: biochemical; conditions: recombinant human PREP 0.6 nM, pH 8.0
T3 sequence (P48147 1-710): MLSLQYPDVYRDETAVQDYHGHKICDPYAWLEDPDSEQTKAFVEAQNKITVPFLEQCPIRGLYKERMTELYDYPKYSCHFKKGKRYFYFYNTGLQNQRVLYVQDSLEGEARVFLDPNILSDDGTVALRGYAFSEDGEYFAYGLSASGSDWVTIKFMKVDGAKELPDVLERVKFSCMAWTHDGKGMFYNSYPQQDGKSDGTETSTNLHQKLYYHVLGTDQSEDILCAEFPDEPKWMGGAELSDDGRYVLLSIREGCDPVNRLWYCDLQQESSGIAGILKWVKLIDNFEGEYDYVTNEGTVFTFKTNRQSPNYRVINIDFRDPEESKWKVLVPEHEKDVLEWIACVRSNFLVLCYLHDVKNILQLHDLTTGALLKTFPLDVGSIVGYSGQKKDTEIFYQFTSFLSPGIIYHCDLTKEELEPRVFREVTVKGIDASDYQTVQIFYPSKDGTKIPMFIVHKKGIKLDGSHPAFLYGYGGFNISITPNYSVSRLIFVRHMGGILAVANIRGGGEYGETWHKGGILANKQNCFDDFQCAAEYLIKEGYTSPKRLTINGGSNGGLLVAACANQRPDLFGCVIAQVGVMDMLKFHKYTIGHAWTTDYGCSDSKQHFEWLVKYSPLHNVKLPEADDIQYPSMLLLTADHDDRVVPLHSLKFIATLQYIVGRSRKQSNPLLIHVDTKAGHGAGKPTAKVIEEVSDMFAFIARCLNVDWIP
Method: as §1

[3] = target: dipeptidyl peptidase IV (DPPIV) (Homo sapiens, UniProt P27487); experiment: Protease inhibition selectivity assay (fluorogenic substrate Gly-Pro-AMC), DPPIV; assay type: biochemical; conditions: recombinant human DPPIV 0.1 nM, pH 7.5; read-out: pIC50 (DPPIV) (converted)
dipeptidyl peptidase IV (DPPIV), sequence (P27487 whole entry): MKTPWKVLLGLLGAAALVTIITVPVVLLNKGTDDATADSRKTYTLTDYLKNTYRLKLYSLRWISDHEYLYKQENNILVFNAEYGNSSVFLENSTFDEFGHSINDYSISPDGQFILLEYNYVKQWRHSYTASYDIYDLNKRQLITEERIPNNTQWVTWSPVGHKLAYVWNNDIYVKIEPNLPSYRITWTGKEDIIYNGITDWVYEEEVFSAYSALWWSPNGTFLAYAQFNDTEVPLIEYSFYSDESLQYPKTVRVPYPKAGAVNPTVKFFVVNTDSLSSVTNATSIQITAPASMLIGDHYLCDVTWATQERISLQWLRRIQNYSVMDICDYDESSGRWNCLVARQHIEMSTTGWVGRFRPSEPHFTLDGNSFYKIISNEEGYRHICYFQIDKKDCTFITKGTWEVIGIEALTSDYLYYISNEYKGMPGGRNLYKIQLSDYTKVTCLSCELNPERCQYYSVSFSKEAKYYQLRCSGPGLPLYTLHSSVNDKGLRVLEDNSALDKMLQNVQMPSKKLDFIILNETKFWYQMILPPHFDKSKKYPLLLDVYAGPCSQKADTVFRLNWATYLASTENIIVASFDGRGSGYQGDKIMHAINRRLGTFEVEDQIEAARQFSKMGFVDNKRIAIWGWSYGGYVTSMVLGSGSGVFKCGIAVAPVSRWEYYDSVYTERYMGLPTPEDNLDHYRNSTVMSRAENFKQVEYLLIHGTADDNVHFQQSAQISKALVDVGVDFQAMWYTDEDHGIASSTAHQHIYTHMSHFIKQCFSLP
Method: as §1

Row | Kd (FAP protein; read-out: pKD (FAP) (converted)) | IC50 [1] | IC50 [2] | IC50 [3] | pKD (FAP) (FAP protein) | Compound
1 | 10 to 100 nM | < 10 nM | > 1000 nM | > 1000 nM |  | CCCCCC(=O)N[C@H]1CSCc2cc(CSCCNC(=O)CN3CCN(CC(=O)O)CCN(CC(=O)O)CCN(CC(=O)O)CC3)cc(c2)CSC[C@@H](C(=O)O)NC(=O)[C@H](Cc2ccccc2)NC(=O)[C@H](CCC(N)=O)NC(=O)[C@H]([C@@H](C)O)NC(=O)[C@@H]2CCCN2C(=O)[C@@H]2CCCN2C1=O [FAP-2286]
2 |  |  |  |  | B (B: 7<pKD<8) | Hex[Cys(3MeBn)-hhy44(NH)-CO-Pro-Thr-Gln-Phe-Cys]-Lys-(DOTA)-OH (PTQFC-{K(DOTA)-OH}; not fully specified (N-terminus, bridges); also: cyclised within brackets, ring closure not given here) [JHDC07]
3 |  |  |  |  | B (B: 7<pKD<8) | Oct[Cys(tMeBn-DOTA-AET)-hhy39-Pro-Thr-Gln-hhy34-Cys]-Glu-(Arg-Gly-Asp(NH2))-OH [JHDC21]
